The results in this text go back to ChEMBL document CHEMBL3769305, “Glucose-functionalized amino-OPEs as biocompatible photosensitizers in PDT” (Eur J Med Chem, 2016).

The data set in a line: Induction of singlet-oxygen generation at 5 x 10^-5 M irradiated at 380 nm by uric acid degradation assay. The data set is classed as physicochemical. The note with it: 0.38 µM.

Consider `COc1cc(C#Cc2cc(OC)c(C#Cc3cc(OC)c(C#CCO[C@@H]4O[C@H](CO)[C@@H](O)[C@H](O)[C@H]4O)cc3OC)cc2OC)c(OC)cc1C#CCO[C@@H]1O[C@H](CO)[C@@H](O)[C@H](O)[C@H]1O`, for which the Activity entry was “Not Active”.
